# Assay results reported in patent US8815233B2, “Method for treating pervasive development disorders” (Curemark LLC, priority 1999, dated 2014).
# Legend:
# autistic children [1] = assay: CARS (Childhood Autism Rating Scale) test pre/post secretin in autistic children; format: in vivo, human; settings: 16 autistic children
# Experimental: Upon determining that a given child was likely to benefit from secretin administration based on the results of the fecal chymotrypsin test, the child was administered a CARS (Childhood Autism Rating Scale) test prior to being scheduled for secretin infusion.
# (§1) For each of the 16 autistic children tested, a preferred secretin infusion process according to the present invention was performed involving the administering of 1 U/kg of body weight of Secretin-Ferring for a period of nine months at intervals of approximately 6 weeks. In addition, another CARS test was administered to each of the 16 autistic children 3 weeks post secretin administration to determine if their autism had changed post infusion.
# (§2) A preferred secretin infusion process includes the initial step of prepping an arm of the candidate child with an IV injection of saline. A test dose of 1 U of Secretin-Ferring is then administered to the child. Approximately one minute after infusion, the child is examined for signs of allergic reaction including rash, increased heart rate, and increase of blood pressure. […] Subsequently, each child receives a 1 U/kg of body weight infusion of Secretin-Ferring approximately every 6 weeks for 9 months. It is to be understood that any commercially available form of secretin may be used.
# autistic children [2] = assay: Fecal Chymotrypsin Test after secretin infusion in autistic children; format: in vivo, human
# Experimental: In this experiment, 16 children diagnosed as having autism were administered the following Fecal Chymotrypsin Test in accordance with an embodiment of the invention. First, approximately 2 grams of stool were collected from each child and placed in a sterile container (although it is to be understood that any quantity of stool may be collected, as 2 grams of stool is not a required amount). Each stool sample was then analyzed using, e.g., an enzymatic photospectrometry analysis as is known by those skilled in the art, to determine the level of fecal chymotrypsin in the stool. Although the enzymatic photospectrophotometry process is preferred, any suitable conventional method may be used for measuring the fecal chymotrypsin levels. The measured chymotrypsin levels of the 16 autistic children are illustrated in FIG. 13.
# After determining the chymotrypsin levels of the stools, each of these levels were compared with threshold chymotrypsin levels to determine if the child was likely to benefit from secretin administration. By way of example, with the fecal chymotrypsin tests of the stool samples being performed at 30° C., normal levels of chymotrypsin are deemed to lie above 8.4 U/gram, whereas pathologically abnormal levels are deemed to lie below 4.2 U/gram. In addition, chymotrypsin levels between 8.4 U/gram and 4.2 U/gram are considered equivocal, and further testing of the individual's fecal chymotrypsin levels over a period of time should be performed.
# as §1
# as §2, with “It is to be understood that any commercially available form of secretin may be used.” left out
# In this experiment, 37 autistic children with abnormal fecal chymotrypsin levels were administered secretin over the course of 6 months using the secretin infusion process described above. Their fecal chymotrypsin (FC) levels were measured weekly using the fecal chymotrypsin test described above.
# [3] = test system: children diagnosed with Autism; settings: Horvath et al. 1998; secretin given as diagnostic procedure during upper gastrointestinal endoscopy; cited from earlier work
substance,measurement,setting,value
secretin,CARS component scores (except fear),autistic children [1]; 3 weeks post secretin infusion,improvement
same,CARS fear component score,autistic children [1]; 3 weeks post secretin infusion,increased
same,CARS scores (overall),"autistic children [1]; approx. 3 weeks after first secretin administration, 1 U/kg IV, vs pre-secretin",overall decrease
same,fecal chymotrypsin level post-secretin administration,"autistic children [2]; each of 16 autistic children, approx. one week after first infusion, 1 U/kg IV Secretin-Ferring, vs pre-secretin (all abnormal)",increased
same,# Autistic Children w/Equivocal FC levels,"autistic children [2]; of 37 children, 6 months post-secretin, pre-secretin 0, equivocal 4.2-8.4 U/gram",2
same,# Autistic Children w/normal FC levels,"autistic children [2]; of 37 children, 6 months post-secretin, pre-secretin 0, normal above 8.4 U/gram",34
same,# Autistic Children w/Abnormal FC levels,"autistic children [2]; of 37 children, 6 months post-secretin, pre-secretin 37, abnormal below 4.2 U/gram",1
same,symptoms associated with Autism after secretin administration,[3],ameliorating the symptoms associated with Autism
